Test results: ChEMBL document CHEMBL5329159, “Anti-proliferative activity of nitroquinolone fused acylhydrazones as non-small cell human lung cancer agents” (RSC Med Chem, 2023)
The source made the active and inactive calls. The calls are words filed in the database; no cut-off is given here.

What was measured:
A549 [1] = experiment: Cytotoxicity against human A549 cells assessed as reduction in cell viability incubated for 72 hrs by MTT assay; assay type: functional, cell-based; conditions: A549, 72 h
MCF7 = experiment: Cytotoxicity against human MCF7 cells assessed as reduction in cell viability incubated for 72 hrs by MTT assay; assay type: functional, cell-based; conditions: MCF7, 72 h
[2] = Cytotoxicity against HEK cells assessed as reduction in cell viability upto 200 uM incubated for 72 hrs by MTT assay; assay type: toxicity, cell-based; conditions: human
HeLa = experiment: Cytotoxicity against human HeLa cells assessed as reduction in cell viability incubated for 72 hrs by MTT assay; assay type: functional, cell-based
[3] = Induction of morphological changes in HEK cells assessed as cell blebbing incubated for 24 hrs by inverted light microscopic analysis; assay type: toxicity, cell-based; conditions: human
[4] = Induction of morphological changes in HEK cells assessed as cell detachment incubated for 24 hrs by inverted light microscopic analysis; assay type: toxicity, cell-based; conditions: human
A549 [5] = experiment: Induction of morphological changes in human A549 cells assessed as membrane blebbing by inverted light microscopic analysis; assay type: functional, cell-based
A549 [6] = experiment: Induction of chromatin condensation in human A549 cells incubated for 24 hrs by DAPI staining based fluorescence microscopic analysis; assay type: functional, cell-based
A549 [7] = experiment: Induction of nuclear fragmentation in human A549 cells incubated for 24 hrs by DAPI staining based fluorescence microscopic analysis; assay type: functional, cell-based
A549 [8] = experiment: Induction of apoptosis in human A549 cells by AO/EtBr staining based fluorescence microscopic analysis; assay type: functional, cell-based
A549 [9] = experiment: Induction of cell cycle arrest in human A549 cells assessed as accumulation of cells at G0/G1 phase after 24 hrs by PI/RNase staining based flow cytometry analysis; assay type: functional
A549 [10] = experiment: Induction of morphological changes in human A549 cells assessed as cell shrinkage by inverted light microscopic analysis; assay type: functional, cell-based
A549 [11] = experiment: Induction of morphological changes in human A549 cells assessed as formation of floating cells by inverted light microscopic analysis; assay type: functional, cell-based
A549 [12] = experiment: Induction of cell cycle arrest in human A549 cells assessed as accumulation of cells at G2/M phase after 24 hrs by PI/RNase staining based flow cytometry analysis; assay type: functional
A549 [13] = experiment: Induction of cell cycle arrest in human A549 cells assessed as accumulation of cells at S phase after 24 hrs by PI/RNase staining based flow cytometry analysis; assay type: functional

Structure (SMILES)	IC50 (A549 [1]) [µM]	IC50 (MCF7) [µM]	Activity [2]	IC50 (HeLa) [µM]	Activity [3]	Activity [4]	Activity (A549 [5])	Activity (A549 [6])	Activity (A549 [7])	Activity (A549 [8])	Activity (A549 [9])	Activity (A549 [10])	Activity (A549 [11])	Activity (A549 [12])	Activity (A549 [13])
O=C(N/N=C1\CCNc2c1cc(Cl)cc2[N+](=O)[O-])c1ccco1	24.5	25.5	Non-Toxic	32.5											
O=C(N/N=C1\CCNc2c1cccc2[N+](=O)[O-])c1cccs1	26.3	22.8	Non-Toxic	29.6											
O=C(N/N=C1\CCNc2c1cccc2[N+](=O)[O-])c1cccnc1	21.5	23.3	Non-Toxic	29.2											
COc1cccc2c1C(=O)c1c(O)c3c(c(O)c1C2=O)C[C@@](O)(C(=O)CO)C[C@@H]3O[C@H]1C[C@H](N)[C@H](O)[C@H](C)O1 [DOXORUBICIN]		11.6	Non-Toxic	13.5											
O=C(N/N=C1\CCNc2c1cc(Cl)cc2[N+](=O)[O-])c1ccccc1O	15.3	18.4	Non-Toxic	21.3	Non-Toxic	Non-Toxic	Dose-Dependent Effect	Active	Active	Active	Active	Dose-Dependent Effect	Dose-Dependent Effect	Active	Active
O=C(N/N=C1\CCNc2c1cccc2[N+](=O)[O-])c1ccccc1O	15.8	20.2	Non-Toxic	24.5											
O=C(N/N=C1\CCNc2c1cc(Cl)cc2[N+](=O)[O-])c1cccs1	17.1	19.2	Non-Toxic	20.1	Non-Toxic	Non-Toxic	Dose-Dependent Effect	Active	Active	Active	Active	Dose-Dependent Effect	Dose-Dependent Effect	Active	Active
O=C(N/N=C1\CCNc2c1cccc2[N+](=O)[O-])c1ccco1	18.3	22.5	Non-Toxic	30.4											
O=C(N/N=C1\CCNc2c1cc(Cl)cc2[N+](=O)[O-])c1cccnc1	23.1	20.5	Non-Toxic	26.8											
